Results from patent US9790470B2, “In vitro pancreatic differentiation of pluripotent mammalian cells” (Cambridge Enterprise Limited, priority 2012, dated 2017).

Columns and labels:
[1] = system: DE cells generated from hESCs; assay: Pancreatic differentiation of hESC-derived definitive endoderm cells, QPCR of marker expression (FIG. 2); format: cell-based; conditions: for expression of pancreatic (progenitor) markers: hESC derived DE cells grown 3 days; for expression of gut (CDX2) and liver markers (AFP): hESC derived DE cells
Method: QPCR analyses showing the expression of PDX1/HLXB9/HNF6/CDX2/AFP/SOX9/PTF1A in DE cells grown for 3 days in the presence of diverse combination of Retinoic Acid (RA), SB431542 (SB) or Activin 10 ng/ml (Act), FGF10 50 ng/ml (FGF) or SU5402 10 μM (SU), and Noggin 100 ng/ml (Nog) or BMP4 10 ng/ml.
hESCs (H9 from WiCell) and hIPSCs (BBHX8, A1ATD-1, JRO1D) (Rashid S, et al. (2010) J Clin Invest 120: 3127-3136) were grown in defined culture (Brons et al (2007) Nature 448: 191-195). Cells were passaged weekly using collagenase IV and maintained in chemically defined medium (CDM) supplemented with Activin A (10 ng/ml) and FGF2 (12 ng/ml) as described previously ((Brons et al (2007)). Differentiation was carried out as described in FIG. 1. Daily media changes were made during the entire differentiation protocol. After the DE stage (stage 1), cells were cultured in Advanced DMEM (Invitrogen) supplemented with SB-431542 (10 μM; Tocris), FGF10 (50 ng/ml; AutogenBioclear), all-trans retinoic acid (RA, 2 μM; Sigma) and Noggin (50 ng/ml; R&D Systems) for 3 days. For stage 3, the cells were cultured in Advanced DMEM+human FGF10 (50 ng/ml; AutogenBioclear), all-trans retinoic acid (RA, 2 μM; Sigma), KAAD-cyclopamine (0.25 μM; Toronto Research Chemicals) and Noggin (50 ng/ml; R&D Systems) for 3 days. For Stage 4, the cells were cultured in human KGF (FGF7) or FGF10 (50 ng/ml; R&D Systems) for 3 days. For maturation of pancreatic progenitors, cells were grown in Advanced DMEM+1% vol/vol B27 and DAPT ([…]) for 3 days and for 3 additional days in Advanced DMEM+1% vol/vol B27. Alternatively, for Stage 4, the cells were cultured in human KGF (FGF7) or FGF10 (50 ng/ml; R&D Systems) and all-trans retinoic acid (RA, 2 μM; Sigma) for 3 days. Alternatively for maturation of pancreatic progenitors, cells were grown in Advanced DMEM+1% vol/vol B27, all-trans retinoic acid (RA, 2 μM; Sigma) and DAPT ([…]) for 3 days and for 3 additional days in Advanced DMEM+1% vol/vol B27 and all-trans retinoic acid (RA, 2 μM; Sigma).
(§1) Methods for RT-QPCR were described in Touboul T et al. (2010). Hepatology 51: 1754-1765. All data are presented as average of 3 independent biological triplicates and error bars indicate standard deviation.
We recently established a defined culture system to differentiate hESCs and hIPSCs into near homogenous populations of Definitive Endoderm (DE) cells (Teo A K et al. (2011) Genes Dev 25: 238-250). Importantly, this culture system relies on a chemically defined medium (CDM) devoid of animal products, including BSA, serum, complex extra cellular matrix such as Matrigel™, or feeders cells; thereby avoiding the presence of unknown factors which could interfere with experimental outcomes. To further extend this protocol, we screened a broad number of combinations of growth factors and inhibitors of signalling pathways to identify defined culture conditions driving differentiation of DE cells into pancreatic progenitors. […] We then sought to validate and optimise the role of each of these additives.

DE cells = assay: Ventral foregut / hepatic specification of DE cells, Q-PCR of hepatic markers (FIGS. 7, 8); format: cell-based, human
Description: as §1
During the screening of the culture conditions described above, we noted that DE cells grown in the presence of Activin acquired the appearance of foetal hepatocytes with large darkened cytoplasmic space and canaliculi-like structures. […] Alternatively, unknown signaling pathways could activate the same program of differentiation.

For Cc1c[nH]c(/C=C2\C(=O)Nc3ccccc32)c1CCC(=O)O [SU5402], the cell death ([1]; FGF inhibition during pancreatic differentiation) was “significant cell death”, the “expression of PTF1A” value ([1]; absence of FGF signalling, QPCR, FIG. 2) was “strongly reduced” and the “expression of pancreatic (progenitor) markers” value (“expression of pancreatic” below) ([1]; QPCR, FIG. 2) was “did not affect the expression of pancreatic progenitor markers”. For the same molecule, the “expression of gut (CDX2) and liver markers (AFP)” value ([1]; QPCR, FIG. 2) was “augmented” and the “expression of ventral foregut / liver bud / hepatic markers” value (DE cells; FIGS. 7 and 8) was “decreases the expression of hepatic markers”.

With CC1=C(/C=C/C(C)=C/C=C/C(C)=C/C(=O)O)C(C)(C)CCC1 [RA, (2E,4E,6E,8E)-3,7-dimethyl-9-(2,6,6-trimethylcyclohexen-1-yl)nona-2,4,6,8-tetraenoic acid] the “expression of pancreatic” value ([1]; QPCR, FIG. 2) was “necessary for the induction of pancreatic specification”.

With NC(=O)c1ccc(-c2nc(-c3ccc4c(c3)OCO4)c(-c3ccccn3)[nH]2)cc1 [SB431542, 4-(5-Benzol[1,3]dioxol-5-yl-4-pyridin-2-yl-1H-imidazol-2-yl)-benzamide hydrate] the “expression of pancreatic” value ([1]; QPCR, FIG. 2) was “had the opposite effect”, the “expression of ventral foregut / liver bud / hepatic markers” value (DE cells; FIGS. 7 and 8, hydrate) was “decreases the expression of hepatic markers” and the “expression of ventral foregut / liver bud / hepatic markers” value (DE cells; FIGS. 7 and 8, listed as SB, hydrate) was “decreased the expression of HNF4α, SOX17, HEX and TBX3”.

B1: BMP4: Bone Morphogenic Protein 4, NCBI GeneID: 652 (protein, UniProt P12644 293-408, looked up)
Bone morphogenetic protein 4: SPKHHSQRARKKNKNCRRHSLYVDFSDVGWNDWIVAPPGYQAFYCHGDCPFPLADHLNSTNHAIVQTLVNSVNSSIPKACCVPTELSAISMLYLDEYDKVVLKNYQEMVVEGCGCR
With B1 the “expression of pancreatic” value ([1]; QPCR, FIG. 2) was “significant decrease in the expression of pancreatic progenitor markers” and the “expression of gut (CDX2) and liver markers (AFP)” value ([1]; QPCR, FIG. 2) was “inducing gut (CDX2) and liver markers (AFP)”.

B2: Noggin: BMP inhibitor (BMP antagonist protein) (protein, UniProt Q13253 28-232, looked up)
Noggin: QHYLHIRPAPSDNLPLVDLIEHPDPIFDPKEKDLNETLLRSLLGGHYDPGFMATSPPEDRPGGGGGAAGGAEDLAELDQLLRQRPSGAMPSEIKGLEFSEGLAQGKKQRLSKKLRRKLQMWLWSQTFCPVLYAWNDLGSRFWPRYVKVGSCFSKRSCSVPEGMVCKPSKSVHLTVLRWRCQRRGGQRCGWIPIQYPIISECKCSC
In the case of B2, the HNF4 expression (DE cells; FIG. 8) is reported as “moderate decrease” and the “expression of ventral foregut / liver bud / hepatic markers” value (DE cells; FIGS. 7 and 8) is reported as “decreases the expression of hepatic markers”.

B3: Activin: dimeric polypeptide which stimulates the Activin/Nodal pathway (protein, UniProt P08476 311-426, looked up)
Inhibin beta A chain: GLECDGKVNICCKKQFFVSFKDIGWNDWIIAPSGYHANYCEGECPSHIAGTSGSSLSFHSTVINHYRMRGHSPFANLKSCCVPTKLRPMSMLYYDDGQNIIKKDIQNMIVEECGCS
modifications: Inhibin beta A chain
For B3, the “expression of pancreatic” value ([1]; QPCR, FIG. 2) was “abolished the expression of pancreatic markers” and the “expression of ventral foregut / liver bud / hepatic markers” value (DE cells; FIGS. 7 and 8) was “expressed genes marking ventral foregut”.
